From patent US20230348442A1, “GALECTIN-3 INHIBITING 2-HYDROXYCYCLOALKANE-1-CARBAMOYL DERIVATIVES” (Idorsia Pharmaceuticals Ltd, priority 2020, published 2023)

Target: human Gal-3 (hGal-3) (Homo sapiens (Human), UniProt P17931)
Experiment: competitive binding assay: binding of biotinylated hGal-3 to microplate-adsorbed asialofetuin (ASF), spectrophotometric
Settings: Activity on hGal-3; mean values of several measurements
Outline: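 Compounds in DMSO dilution series competed with 300-1000 ng/mL biotinylated hGal-3 for asialofetuin adsorbed on the plate (3 h, 4° C). Streptavidin-peroxidase at 80 ng/mL (1 h, 4° C) with ABTS gave a spectrophotometric read-out, and IC50 was reported as the mean of repeat runs.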

Chain of human Gal-3 (hGal-3) (P17931 whole entry): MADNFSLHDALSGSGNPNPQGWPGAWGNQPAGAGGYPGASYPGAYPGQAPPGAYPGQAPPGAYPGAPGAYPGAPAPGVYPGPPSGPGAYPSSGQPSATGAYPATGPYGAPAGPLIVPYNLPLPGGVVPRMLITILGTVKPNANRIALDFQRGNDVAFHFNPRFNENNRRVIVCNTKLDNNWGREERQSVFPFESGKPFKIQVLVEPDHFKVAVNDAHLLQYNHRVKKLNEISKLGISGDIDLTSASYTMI

Row | SMILES | IC50 [nM]
1 | Cc1c(F)cc(-c2cn([C@H]3[C@@H](O)[C@@H](CO)O[C@@H](C(=O)N(c4cc(Cl)cc(C#N)c4)[C@H]4CCC[C@@H]4O)[C@@H]3O)nn2)cc1F [Example 1H.4.4, (2R,3R,4S,5R,6R)-N-(3-chloro-5-cyanophenyl)-4-(4-(3,5-difluoro-4-methylphenyl)-1H-1,2,3-triazol-1-yl)-3,5-dihydroxy-N-((1S,2S)-2-hydroxycyclopentyl)-6-(hydroxymethyl)tetrahydro-2H-pyran-2-carboxamide] | 19.3
2 | O=C([C@@H]1O[C@H](CO)[C@H](O)[C@H](n2cc(-c3cc(F)c(Cl)c(F)c3)nn2)[C@H]1O)N(c1cc(Cl)cc(Cl)c1)[C@H]1CCC[C@@H]1O [Example 1H.5.2, (2R,3R,4S,5R,6R)-4-(4-(4-chloro-3,5-difluorophenyl)-1H-1,2,3-triazol-1-yl)-N-(3,5-dichlorophenyl)-3,5-dihydroxy-N-((1S,2S)-2-hydroxycyclopentyl)-6-(hydroxymethyl)tetrahydro-2H-pyran-2-carboxamide] | 14.3
3 | CO[C@@H]1[C@@H](n2cc(-c3cc(F)c(F)c(F)c3)nn2)[C@@H](O)[C@@H](CO)O[C@H]1C(=O)N(c1cccc(Cl)c1)[C@H]1CC[C@@H]1O [Example 2.1.1, (2R,3R,4S,5R,6R)-N-(3-chlorophenyl)-5-hydroxy-N-((1S,2S)-2-hydroxycyclobutyl)-6-(hydroxymethyl)-3-methoxy-4-(4-(3,4,5-trifluorophenyl)-1H-1,2,3-triazol-1-yl)tetrahydro-2H-pyran-2-carboxamide] | 109
4 | CO[C@@H]1[C@@H](n2cc(-c3cc(F)c(F)c(F)c3)nn2)[C@@H](O)[C@@H](CO)O[C@H]1C(=O)N(c1cccc(Cl)c1)[C@@H]1CC[C@H]1O [Example 2.1.1R, (2R,3R,4S,5R,6R)-N-(3-chlorophenyl)-5-hydroxy-N-((1R,2R)-2-hydroxycyclobutyl)-6-(hydroxymethyl)-3-methoxy-4-(4-(3,4,5-trifluorophenyl)-1H-1,2,3-triazol-1-yl)tetrahydro-2H-pyran-2-carboxamide] | 4400
5 | CO[C@@H]1[C@@H](n2cc(-c3cc(F)c(F)c(F)c3)nn2)[C@@H](O)[C@@H](CO)O[C@H]1C(=O)N(c1cc(Cl)cc(Cl)c1)[C@H]1CC[C@@H]1O [Example 2.1.2, (2R,3R,4S,5R,6R)-N-(3,5-dichlorophenyl)-5-hydroxy-N-((1S,2S)-2-hydroxycyclobutyl)-6-(hydroxymethyl)-3-methoxy-4-(4-(3,4,5-trifluorophenyl)-1H-1,2,3-triazol-1-yl)tetrahydro-2H-pyran-2-carboxamide] | 51.8
6 | CO[C@@H]1[C@@H](n2cc(-c3cc(F)c(F)c(F)c3)nn2)[C@@H](O)[C@@H](CO)O[C@H]1C(=O)N(c1cc(Cl)cc(Cl)c1)[C@@H]1CC[C@H]1O [Example 2.1.2R, (2R,3R,4S,5R,6R)-N-(3,5-dichlorophenyl)-5-hydroxy-N-((1R,2R)-2-hydroxycyclobutyl)-6-(hydroxymethyl)-3-methoxy-4-(4-(3,4,5-trifluorophenyl)-1H-1,2,3-triazol-1-yl)tetrahydro-2H-pyran-2-carboxamide] | 110
7 | CO[C@@H]1[C@@H](n2cc(-c3cc(F)c(F)c(F)c3)nn2)[C@@H](O)[C@@H](CO)O[C@H]1C(=O)N(c1cc(C)cc(Cl)c1)[C@H]1CC[C@@H]1O [Example 2.1.3, (2R,3R,4S,5R,6R)-N-(3-chloro-5-methylphenyl)-5-hydroxy-N-((1S,2S)-2-hydroxycyclobutyl)-6-(hydroxymethyl)-3-methoxy-4-(4-(3,4,5-trifluorophenyl)-1H-1,2,3-triazol-1-yl)tetrahydro-2H-pyran-2-carboxamide] | 118
8 | CO[C@@H]1[C@@H](n2cc(-c3cc(F)c(F)c(F)c3)nn2)[C@@H](O)[C@@H](CO)O[C@H]1C(=O)N(c1cc(C)cc(Cl)c1)[C@@H]1CC[C@H]1O [Example 2.1.3R, (2R,3R,4S,5R,6R)-N-(3-chloro-5-methylphenyl)-5-hydroxy-N-((1R,2R)-2-hydroxycyclobutyl)-6-(hydroxymethyl)-3-methoxy-4-(4-(3,4,5-trifluorophenyl)-1H-1,2,3-triazol-1-yl)tetrahydro-2H-pyran-2-carboxamide] | 258
9 | CO[C@@H]1[C@@H](n2cc(-c3cc(F)c(F)c(F)c3)nn2)[C@@H](O)[C@@H](CO)O[C@H]1C(=O)N(c1cc(Cl)cc(C#N)c1)[C@H]1CC[C@@H]1O [Example 2.1.4, (2R,3R,4S,5R,6R)-N-(3-chloro-5-cyanophenyl)-5-hydroxy-N-((1S,2S)-2-hydroxycyclobutyl)-6-(hydroxymethyl)-3-methoxy-4-(4-(3,4,5-trifluorophenyl)-1H-1,2,3-triazol-1-yl)tetrahydro-2H-pyran-2-carboxamide] | 78.8
10 | CO[C@@H]1[C@@H](n2cc(-c3cc(F)c(F)c(F)c3)nn2)[C@@H](O)[C@@H](CO)O[C@H]1C(=O)N(c1cc(Cl)cc(C#N)c1)[C@@H]1CC[C@H]1O [Example 2.1.4R, (2R,3R,4S,5R,6R)-N-(3-chloro-5-cyanophenyl)-5-hydroxy-N-((1R,2R)-2-hydroxycyclobutyl)-6-(hydroxymethyl)-3-methoxy-4-(4-(3,4,5-trifluorophenyl)-1H-1,2,3-triazol-1-yl)tetrahydro-2H-pyran-2-carboxamide] | 390
11 | CO[C@@H]1[C@@H](n2cc(-c3cc(F)c(F)c(F)c3)nn2)[C@@H](O)[C@@H](CO)O[C@H]1C(=O)N(c1cc(Br)cc(C#N)c1)[C@H]1CC[C@@H]1O [Example 2.1.5, (2R,3R,4S,5R,6R)-N-(3-bromo-5-cyanophenyl)-5-hydroxy-N-((1S,2S)-2-hydroxycyclobutyl)-6-(hydroxymethyl)-3-methoxy-4-(4-(3,4,5-trifluorophenyl)-1H-1,2,3-triazol-1-yl)tetrahydro-2H-pyran-2-carboxamide] | 44.5
12 | CO[C@@H]1[C@@H](n2cc(-c3cc(F)c(F)c(F)c3)nn2)[C@@H](O)[C@@H](CO)O[C@H]1C(=O)N(c1cc(Br)cc(C#N)c1)[C@@H]1CC[C@H]1O [Example 2.1.5R, (2R,3R,4S,5R,6R)-N-(3-bromo-5-cyanophenyl)-5-hydroxy-N-((1R,2R)-2-hydroxycyclobutyl)-6-(hydroxymethyl)-3-methoxy-4-(4-(3,4,5-trifluorophenyl)-1H-1,2,3-triazol-1-yl)tetrahydro-2H-pyran-2-carboxamide] | 191
13 | CO[C@@H]1[C@@H](n2cc(-c3cc(F)c(F)c(F)c3)nn2)[C@@H](O)[C@@H](CO)O[C@H]1C(=O)N(c1cccc(I)c1)[C@H]1CC[C@@H]1O [Example 2.1.6, (2R,3R,4S,5R,6R)-5-hydroxy-N-((1S,2S)-2-hydroxycyclobutyl)-6-(hydroxymethyl)-N-(3-iodophenyl)-3-methoxy-4-(4-(3,4,5-trifluorophenyl)-1H-1,2,3-triazol-1-yl)tetrahydro-2H-pyran-2-carboxamide] | 196
14 | CO[C@@H]1[C@@H](n2cc(-c3cc(F)c(F)c(F)c3)nn2)[C@@H](O)[C@@H](CO)O[C@H]1C(=O)N(c1cccc(I)c1)[C@@H]1CC[C@H]1O [Example 2.1.6R, (2R,3R,4S,5R,6R)-5-hydroxy-N-((1R,2R)-2-hydroxycyclobutyl)-6-(hydroxymethyl)-N-(3-iodophenyl)-3-methoxy-4-(4-(3,4,5-trifluorophenyl)-1H-1,2,3-triazol-1-yl)tetrahydro-2H-pyran-2-carboxamide] | 232
